# Measurements published in patent US20230093861A1, “RAPAMYCIN ANALOGS AS MTOR INHIBITORS” (Revolution Medicines, Inc., priority 2017, published 2023).
# Legend:
# P-Akt (S473) = assay: Cell based AlphaLISA assay, inhibition of P-Akt (S473) (mTORC2 substrate phosphorylation) in MDA-MB-468 cells; settings: Homo sapiens, MDA-MB-468, 4 h, AlphaLISA, two to four hours at 37° C., read-out: pIC50 for Inhibition of mTORC1 and mTORC2 Substrate Phosphorylation, p-AKT 1/2/3 -(S473) (converted)
# In short: (§1)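 After treatment, cells were lysed in the kit's buffer once assay medium was withdrawn. Duplicate Alpha measurements tracked each phospho-epitope, and dose-response data were fitted to IC50 following normalization to control wells.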
# P-P70S6K (T389) = assay: Cell based AlphaLISA assay, inhibition of P-P70S6K (T389) (mTORC1 substrate phosphorylation) in MDA-MB-468 cells; settings: Homo sapiens, 4 h, AlphaLISA, two to four hours at 37° C., read-out: pIC50 for Inhibition of mTORC1 and mTORC2 Substrate Phosphorylation, P-P70S6K-(T389) (converted)
# In short: as §1
# P-4E-BP1 (T37/46) = assay: Cell based AlphaLISA assay, inhibition of P-4E-BP1 (T37/46) (mTORC1 substrate phosphorylation) in MDA-MB-468 cells; settings: Homo sapiens, MDA-MB-468, 4 h, AlphaLISA, two to four hours at 37° C., read-out: pIC50 for Inhibition of mTORC1 and mTORC2 Substrate Phosphorylation, P-4E-BP1-(T37/46) (converted)
# In short: as §1
Compound,IC50 (P-Akt (S473)) [nM],IC50 (P-P70S6K (T389)) [nM],IC50 (P-4E-BP1 (T37/46)) [nM]
CO[C@H]1C[C@@H]2CC[C@@H](C)[C@@](O)(O2)C(=O)C(=O)N2CCCC[C@H]2C(=O)O[C@H]([C@H](C)C[C@@H]2CC[C@@H](O)[C@H](OC)C2)C[C@@H](OC)[C@H](C)/C=C(\C)[C@@H](O)[C@@H](OC)C(=NOCc2cn(CCOCCOCCOCCOCCOCCOCCC(=O)NCCCCn3nc(-c4ccc5oc(N)nc5c4)c4c(N)ncnc43)nn2)[C@H](C)C[C@H](C)/C=C/C=C/C=C/1C [Example 13],31.6 to 1000,1 to 10,3.16 to 31.6
CO[C@H]1C[C@@H]2CC[C@@H](C)[C@@](O)(O2)C(=O)C(=O)N2CCCC[C@H]2C(=O)O[C@H]([C@H](C)C[C@@H]2CC[C@@H](O)[C@H](OC)C2)C[C@@H](O)[C@H](C)/C=C(\C)[C@@H](O)[C@@H](OC)C(=NOCc2cn(CCOCCOCCOCCOCCOCCOCCOCCOCCC(=O)NCCCCn3nc(-c4cc5cc(O)ccc5[nH]4)c4c(N)ncnc43)nn2)[C@H](C)C[C@H](C)/C=C/C=C/C=C/1C [Example 94],> 1000,1 to 10,3.16 to 31.6
CO/N=C1/C[C@@H]([C@H](C)C[C@@H]2CC[C@H](n3cc(COC(=O)NCCOCCOCCOCCC(=O)NCCOCCOCCC(=O)NCCCCn4nc(-c5ccc6oc(N)nc6c5)c5c(N)ncnc54)nn3)[C@H](OC)C2)OC(=O)[C@@H]2CCCCN2C(=O)C(=O)[C@]2(O)O[C@@H](CC[C@H]2C)C[C@H](OC)/C(C)=C/C=C/C=C/[C@@H](C)C[C@@H](C)C(=O)[C@H](OC)[C@H](O)/C(C)=C/[C@H]1C [Example 151],> 1000,10 to 1000,31.6 to 1000
CO[C@H]1C[C@@H]2CC[C@@H](C)[C@@](O)(O2)C(=O)C(=O)N2CCCC[C@H]2C(=O)O[C@H]([C@H](C)C[C@@H]2CC[C@@H](OCCCCc3cn(CCOCCOCCOCCOCCNC(=O)CCCC(=O)NCCCCn4nc(-c5ccc6oc(N)nc6c5)c5c(N)ncnc54)nn3)[C@H](OC)C2)CC(=O)[C@H](C)/C=C(\C)[C@@H](O)[C@@H](OC)C(=O)[C@H](C)C[C@H](C)/C=C/C=C/C=C/1C [Example 101],3.16 to 31.6,< 1,< 3.16
CO[C@H]1C[C@@H]2CC[C@@H](C)[C@@](O)(O2)C(=O)C(=O)N2CCCC[C@H]2C(=O)O[C@H]([C@H](C)C[C@@H]2CC[C@H](n3cc(COC(=O)NCCOCCOCCOCCC(=O)NCCOCCOCCOCCC(=O)NCCCCn4nc(-c5cc6cc(O)ccc6[nH]5)c5c(N)ncnc54)nn3)[C@H](OC)C2)C[C@@H](OC)[C@H](C)/C=C(\C)[C@@H](O)[C@@H](OC)C(=O)[C@H](C)C[C@H](C)/C=C/C=C/C=C/1C [Example 146],> 1000,1 to 10,> 1000
CO[C@H]1C[C@@H]2CC[C@@H](C)[C@@](O)(O2)C(=O)C(=O)N2CCCC[C@H]2C(=O)O[C@H]([C@H](C)C[C@@H]2CC[C@@H](O)[C@H](OC)C2)C[C@@H](OC)[C@H](C)/C=C(\C)[C@@H](O)[C@@H](OC)C(=NOCc2cn(CCOCCOCCOCCOCCNC(=O)CCCC(=O)NCCCCn3nc(-c4ccc5oc(N)nc5c4)c4c(N)ncnc43)nn2)[C@H](C)C[C@H](C)/C=C/C=C/C=C/1C [Example 104],31.6 to 1000,1 to 10,31.6 to 1000
CO[C@H]1C[C@@H]2CC[C@@H](C)[C@@](O)(O2)C(=O)C(=O)N2CCCC[C@H]2C(=O)O[C@H]([C@H](C)C[C@@H]2CC[C@H](n3cc(COC(=O)NCCOCCOCCOCCC(=O)NCCOCCOCCC(=O)NCCCCn4nc(-c5cc6cc(O)ccc6[nH]5)c5c(N)ncnc54)nn3)[C@H](OC)C2)C/C(=N/OCc2ccccc2)[C@H](C)/C=C(\C)[C@@H](O)[C@@H](OC)C(=O)[C@H](C)C[C@H](C)/C=C/C=C/C=C/1C [Example 155],> 1000,> 1000,> 1000
CO[C@H]1C[C@@H]2CC[C@@H](C)[C@@](O)(O2)C(=O)C(=O)N2CCCC[C@H]2C(=O)O[C@H]([C@H](C)C[C@@H]2CC[C@@H](OCCCCc3cn(CCOCCOCCOCCOCCOCCOCCOCCOCCC(=O)NCCS(=O)(=O)c4ccc(C(=O)N5CCOc6ccc(-c7ccc(N)nc7)cc6C5)c(C)c4F)nn3)[C@H](OC)C2)CC(=O)[C@H](C)/C=C(\C)[C@@H](O)[C@@H](OC)C(=O)[C@H](C)C[C@H](C)/C=C/C=C/C=C/1C [Example 96],3.16 to 31.6,< 1,< 3.16
CO[C@H]1C[C@@H]2CC[C@@H](C)[C@@](O)(O2)C(=O)C(=O)N2CCCC[C@H]2C(=O)O[C@H]([C@H](C)C[C@@H]2CC[C@H](n3cc(CCCC(=O)NCCOCCOCCOCCC(=O)NCCOCCOCCOCCC(=O)NCCCCn4nc(-c5ccc6oc(N)nc6c5)c5c(N)ncnc54)nn3)[C@H](OC)C2)C/C(=N/OC(C)(C)C)[C@H](C)/C=C(\C)[C@@H](O)[C@@H](OC)C(=O)[C@H](C)C[C@H](C)/C=C/C=C/C=C/1C [Example 177],> 1000,10 to 1000,> 1000
CO[C@H]1C[C@@H]2CC[C@@H](C)[C@@](O)(O2)C(=O)C(=O)N2CCCC[C@H]2C(=O)O[C@H]([C@H](C)C[C@@H]2CC[C@H](n3cc(COC(=O)NCCOCCOCCOCCOCCC(=O)NCCOCCOCCOCCOCCC(=O)NCCCCn4nc(-c5cc6cc(O)ccc6[nH]5)c5c(N)ncnc54)nn3)[C@H](OC)C2)CC(=O)[C@H](C)/C=C(\C)[C@@H](O)[C@@H](OC)C(=O)[C@H](C)C[C@H](C)/C=C/C=C/C=C/1C [Example 127],31.6 to 1000,1 to 10,3.16 to 31.6
CCO[C@@H]1C[C@@H]([C@H](C)C[C@@H]2CC[C@@H](O)[C@H](OC)C2)OC(=O)[C@@H]2CCCCN2C(=O)C(=O)[C@]2(O)O[C@@H](CC[C@H]2C)C[C@H](OC)/C(C)=C/C=C/C=C/[C@@H](C)C[C@@H](C)C(=NOCc2cn(CCOCCOCCOCCOCCOCCOCCC(=O)NCCCCn3nc(-c4ccc5oc(N)nc5c4)c4c(N)ncnc43)nn2)[C@H](OC)[C@H](O)/C(C)=C/[C@H]1C [Example 65],31.6 to 1000,1 to 10,3.16 to 31.6
CO[C@H]1C[C@@H]2CC[C@@H](C)[C@@](O)(O2)C(=O)C(=O)N2CCCC[C@H]2C(=O)O[C@H]([C@H](C)C[C@@H]2CC[C@H](n3nncc3-c3cccc(-c4cnc(N5CCN(Cc6cn(CCOCCOCCOCCOCCOCCC(=O)NCCCCn7nc(-c8ccc9oc(N)nc9c8)c8c(N)ncnc87)nn6)C(CO)C5)nc4)c3)[C@H](OC)C2)CC(=O)[C@H](C)/C=C(\C)[C@@H](O)[C@@H](OC)C(=O)[C@H](C)C[C@H](C)/C=C/C=C/C=C/1C (stereo partly drawn) [Example 32],3.16 to 31.6,1 to 10,3.16 to 31.6
CO[C@H]1C[C@@H]2CC[C@@H](C)[C@@](O)(O2)C(=O)C(=O)N2CCCC[C@H]2C(=O)O[C@H]([C@H](C)C[C@@H]2CC[C@@H](OC(=O)NCc3cn(CCOCCOCCOCCOCCOCCOCCOCCOCCC(=O)NCCCCn4nc(-c5ccc6oc(N)nc6c5)c5c(N)ncnc54)nn3)[C@H](OC)C2)CC(=O)[C@H](C)/C=C(\C)[C@@H](O)[C@@H](OC)C(=O)[C@H](C)C[C@H](C)/C=C/C=C/C=C/1C [Example 61],3.16 to 31.6,1 to 10,3.16 to 31.6
COc1ccc(-c2ccc3ncc4c(c3c2)n(-c2ccc(N3CCN(C(=O)CCOCCOCCOCCOCCOCCOCCn5cc(CON=C6[C@H](C)C[C@H](C)/C=C/C=C/C=C(\C)[C@@H](OC)C[C@@H]7CC[C@@H](C)[C@@](O)(O7)C(=O)C(=O)N7CCCC[C@H]7C(=O)O[C@H]([C@H](C)C[C@@H]7CC[C@@H](O)[C@H](OC)C7)C[C@@H](O)[C@H](C)/C=C(\C)[C@@H](O)[C@H]6OC)nn5)CC3)c(C(F)(F)F)c2)c(=O)n4C)cn1 [Example 52],3.16 to 31.6,< 1,3.16 to 31.6
CCO[C@@H]1C[C@@H]([C@H](C)C[C@@H]2CC[C@H](n3cc(CCCC(=O)NCCOCCOCCOCCC(=O)NCCOCCOCCC(=O)NCCCCn4nc(-c5cc6cc(O)ccc6[nH]5)c5c(N)ncnc54)nn3)[C@H](OC)C2)OC(=O)[C@@H]2CCCCN2C(=O)C(=O)[C@]2(O)O[C@@H](CC[C@H]2C)C[C@H](OC)/C(C)=C/C=C/C=C/[C@@H](C)C[C@@H](C)C(=O)[C@H](OC)[C@H](O)/C(C)=C/[C@H]1C [Example 166],> 1000,> 1000,> 1000
CO[C@H]1C[C@@H]2CC[C@@H](C)[C@@](O)(O2)C(=O)C(=O)N2CCCC[C@H]2C(=O)O[C@H]([C@H](C)C[C@@H]2CC[C@H](n3cc(COCCOCCOCCOCCC(=O)OCCOCCOCCOCCOCCC(=O)NCCCCn4nc(-c5ccc6oc(N)nc6c5)c5c(N)ncnc54)nn3)[C@H](OC)C2)CC(=O)C(C)/C=C(\C)[C@@H](O)[C@@H](OC)C(=O)[C@H](C)C[C@H](C)/C=C/C=C/C=C/1C (stereo in doubt) [Example 197],31.6 to 1000,1 to 10,3.16 to 31.6
CO[C@H]1C[C@@H]2CC[C@@H](C)[C@@](O)(O2)C(=O)C(=O)N2CCCC[C@H]2C(=O)O[C@H]([C@H](C)C[C@@H]2CC[C@@H](OCCCCc3cn(CCOCCOCCOCCOCCNC(=O)CCCCC(=O)NCCCCn4nc(-c5ccc6oc(N)nc6c5)c5c(N)ncnc54)nn3)[C@H](OC)C2)CC(=O)[C@H](C)/C=C(\C)[C@@H](O)[C@@H](OC)C(=O)[C@H](C)C[C@H](C)/C=C/C=C/C=C/1C [Example 103],3.16 to 31.6,< 1,< 3.16
